Experimental data published in patent publication US9908893B2 (Latvian Institute of Organic Synthesis, priority 2013, dated 2018).
Where two headings read alike, the source gives them in different places.

How the values were obtained:
[1] = test system: A7R5 (rat aorta smooth muscle) cells; assay: Intracellular Ca2+ measurements, Fluo-4 NW Calcium Assay Kit, KCl-induced [Ca2+]i increase; format: cell-based; details: for Ca^2+ antagonist effect compared with Verapamil: relative to Verapamil
Protocol: Changes in intracellular [Ca^2+] concentration were studied using A7R5 (rat aorta smooth muscle) cells and Fluo-4 NW Calcium Assay Kit (“Invitrogen”, Sweden) according to manufacturer's instructions.
Changes in intracellular [Ca^2+]i concentration were studied using Fluo-4 NW Calcium Assay Kit (“Invitrogen”, Sweden) accordingly to manufacturer's instructions. The A7R5 (rat aorta smooth muscle) cells were grown at 37° C. in a humidified atmosphere with 5% CO2/95% air in DMEM medium containing 2 mM glutamine and supplemented with 10% FBS. The cells were seeded into 96 well plate at 10,000 cells/well and incubated for 72 h. The cells were loaded with […] for 45 min. The Fura-4NW loaded cells were pre-incubated in the dark for 15 minutes with tested compounds at concentrations from 0.8 to 100 μM. Then A7R5 cells were pre-treated with 1.5 mM CaCl2 for 5 minutes and KCl (50 mM) was added to A7R5 cells to induce [Ca^2+]i increase. Amlodipine, the well-known calcium channel inhibitor was used as the positive control.

[2] = Basal toxicity test, neutral red, alternative LD50 calculated from IC50; details: mouse, LD50, alternative LD50 calculated by formula from IC50 in NIH 3T3 cells
Protocol: A low therapeutic index of chemotherapy agents is due to affecting not only cancer formation but also normal cells.
9,000 NIH 3T3 cells/well were placed into 96-well plates for 24 h and then exposed to the test compound over a range of eight concentration (1-1000 μg/ml) for 24 h. Upon that, the cells were incubated with the neutral red dye for 4 h and then OD was determined at 540 nm. […] The IC50 values were calculated using the program Graph Pad Prism® 4.0

[3] = Rattus norvegicus, A7R5, read-out: Ca^2+ A7R5, IC50

SMILES | IC50 [1, 3] [µM] | LD50 at 24 h [2] [mg/kg] | Ca^2+ antagonist effect compared with Verapamil ([1]; A7R5 cells) | Ca^2+ A7R5, IC50 ([1]; A7R5 cells, KCl (50 mM) induced [Ca2+]i increase, compounds 0.8 to 100 μM) | IC50 ([1]; A7R5 cells, KCl (50 mM) induced [Ca2+]i increase, compounds 0.8 to 100 μM, read-out: Ca^2+ A7R5, IC50) [µM]
COc1ccc(C(=O)c2sc3nc(C)c(C(C)=O)c(-c4ccc(OC)c(OC)c4)c3c2N)cc1 [Compound 1, 5-Acetyl-3-amino-4-(3,4-dimethoxyphenyl)-2-(4-methoxybenzoyl)-6-methyl-thieno[2,3-b]pyridine] | 24 ± 1.2 | > 2000 |  |  | 
COc1ccc(C(=O)c2sc3nc(C)c(C(C)=O)c(-c4ccc(OC)c(OC)c4)c3c2N)c(OC)c1 [Compound 2, 5-Acetyl-3-amino-2-(2,4-dimethoxybenzoyl)-4-(3,4-dimethoxyphenyl)-6-methyl-thieno[2,3-b]pyridine] | 15 ± 1.1 | > 2000 |  |  | 
COc1ccc(C(=O)c2sc3nc(C)c(C(C)=O)c(-c4cc(OC)c(OC)c(OC)c4)c3c2N)cc1 [Compound 3, 5-Acetyl-3-amino-2-(4-methoxybenzoyl)-6-methyl-4-(3,4,5-trimethoxyphenyl)-thieno[2,3-b]pyridine] | 14 ± 0.9 | > 2000 | more than ten times lower |  | 
COc1ccc(C(=O)c2sc3nc(C)c(C(C)=O)c(-c4cc(OC)c(OC)c(OC)c4)c3c2N)c(OC)c1 [Compound 4, 5-Acetyl-3-amino-2-(2,4-dimethoxybenzoyl)-6-methyl-4-(3,4,5-trimethoxyphenyl)-thieno[2,3-b]pyridine] |  | 1070 |  | No effect | 
COC(=O)c1c(C)nc2sc(C(=O)c3ccc(OC)cc3)c(N)c2c1-c1ccc(OC)cc1 [Compound 5, 3-Amino-2-(4-methoxybenzoyl)-4-(4-methoxyphenyl)-6-methyl-thieno[2,3-b]-pyridine-5-carboxylic acid methyl ester] | 15.4 ± 2 | > 2000 |  |  | 
COC(=O)c1c(C)nc2sc(C(=O)c3ccc(OC)cc3OC)c(N)c2c1-c1ccc(OC)c(OC)c1 [Compound 7, 3-Amino-2-(2,4-dimethoxybenzoyl)-4-(3,4-dimethoxyphenyl)-6-methyl-thieno[2,3-b]pyridine-5-carboxylic acid methyl ester] | 5.6 ± 1.4 | 1040 |  |  | 
COC(=O)c1c(C)nc2sc(C(=O)c3ccc(F)cc3)c(N)c2c1-c1cc(OC)c(OC)c(OC)c1 [Compound 8, 3-Amino-2-(4-fluorobenzoyl)-6-methyl-4-(3,4,5-trimethoxyphenyl)thieno[2,3-b]-pyridine-5-carboxylic acid methyl ester] | 3 ± 0.8 | > 2000 |  |  | 
COC(=O)c1c(C)nc2sc(C(=O)c3ccc(Cl)cc3)c(N)c2c1-c1cc(OC)c(OC)c(OC)c1 [Compound 9, 3-Amino-2-(4-chlorobenzoyl)-6-methyl-4-(3,4,5-trimethoxyphenyl)thieno[2,3-b]-pyridine-5-carboxylic acid methyl ester] | 3 ± 0.2 | 1420 |  |  | 
CCOC(=O)c1c(C)nc2sc(C(=O)c3ccc(OC)cc3)c(N)c2c1-c1ccc(O)cc1 [Compound 14, 3-Amino-4-(4-hydroxyphenyl)-2-(4-methoxybenzoyl)-6-methylthieno[2,3-b]-pyridine-5-carboxylic acid ethyl ester] | 4.3 ± 0.7 | 231 |  |  | 
CCOC(=O)c1c(C)nc2sc(C(=O)c3ccc(OC)cc3)c(N)c2c1-c1ccc(O)c(OC)c1 [Compound 16, 3-Amino-4-(4-hydroxy-3-methoxyphenyl)-2-(4-methoxybenzoyl)-6-methyl-thieno[2,3-b]pyridine-5-carboxylic acid ethyl ester] | 3.7 ± 0.4 | > 2000 | more than ten times lower |  | 
CCOC(=O)c1c(C)nc2sc(C(=O)c3ccc(OC)cc3)c(N)c2c1-c1ccc(OC)cc1 [Compound 17, 3-Amino-2-(4-methoxybenzoyl)-4-(4-methoxyphenyl)-6-methylthieno[2,3-b]-pyridine-5-carboxylic acid ethyl ester] | 100 ± 11 | > 2000 |  |  | 
CCOC(=O)c1c(C)nc2sc(C(=O)c3ccc(F)cc3)c(N)c2c1-c1ccc(OC)c(OC)c1 [Compound 18, 3-Amino-4-(3,4-dimethoxyphenyl)-2-(4-fluorobenzoyl)-6-methylthieno[2,3-b]-pyridine-5-carboxylic acid ethyl ester] | 7 ± 1.2 | > 2000 |  |  | 
CCOC(=O)c1c(C)nc2sc(C(=O)c3ccc(Cl)cc3)c(N)c2c1-c1ccc(OC)c(OC)c1 [Compound 19, 3-Amino-2-(4-chlorobenzoyl)-4-(3,4-dimethoxyphenyl)-6-methylthieno[2,3-b]-pyridine-5-carboxylic acid ethyl ester] | 11 ± 0.7 | > 2000 |  |  | 
CCOC(=O)c1c(C)nc2sc(C(=O)c3ccc(OC)cc3)c(N)c2c1-c1ccc(OC)c(OC)c1 [Compound 20, 3-Amino-4-(3,4-dimethoxyphenyl)-2-(4-methoxybenzoyl)-6-methylthieno[2,3-b]-pyridine-5-carboxylic acid ethyl ester] | 3 ± 0.4 | 2040 |  |  | 
CCOC(=O)c1c(C)nc2sc(C(=O)c3ccc(OC)cc3OC)c(N)c2c1-c1ccc(OC)c(OC)c1 [Compound 21, 3-Amino-2-(2,4-dimethoxybenzoyl)-4-(3,4-dimethoxyphenyl)-6-methyl-thieno[2,3-b]pyridine-5-carboxylic acid ethyl ester] | 1.2 ± 0.2 | 2360 |  |  | 
CCOC(=O)c1c(C)nc2sc(C(=O)c3ccc(F)cc3)c(N)c2c1-c1cc(OC)c(OC)c(OC)c1 [Compound 22, 3-Amino-2-(4-fluorobenzoyl)-4-(3,4,5-trimethoxyphenyl)-6-methylthieno[2,3-b]-pyridine-5-carboxylic acid ethyl ester] | 20 ± 2 | > 2000 | more than ten times lower |  | 
CCOC(=O)c1c(C)nc2sc(C(=O)c3ccc(Cl)cc3)c(N)c2c1-c1cc(OC)c(OC)c(OC)c1 [Compound 23, 3-Amino-2-(4-chlorobenzoyl)-4-(3,4,5-trimethoxyphenyl)-6-methylthieno[2,3-b]-pyridine-5-carboxylic acid ethyl ester] | 4 ± 0.4 | 2700 |  |  | 
CCOC(=O)c1c(C)nc2sc(C(=O)c3ccc(OC)cc3)c(N)c2c1-c1ccc(OCC)cc1 [Compound 26, 3-Amino-4-(4-ethoxyphenyl)-2-(4-methoxybenzoyl)-6-methylthieno[2,3-b]-pyridine-5-carboxylic acid ethyl ester] | > 100 | > 2000 |  |  | 
CCOC(=O)c1c(C)nc2sc(C(=O)c3ccc(OC)cc3)c(N)c2c1-c1ccc(Cl)cc1 [Compound 28, 3-Amino-4-(4-chlorophenyl)-2-(4-methoxybenzoyl)-6-methylthieno[2,3-b]-pyridine-5-carboxylic acid ethylester] | > 100 | > 2000 |  |  | 
CCCOCCOC(=O)c1c(C)nc2sc(C(=O)c3ccc(OC)cc3OC)c(N)c2c1-c1cc(OC)c(OC)c(OC)c1 [Compound 37, 3-Amino-2-(2,4-dimethoxybenzoyl)-6-methyl-4-(3,4,5-trimethoxyphenyl)-thieno[2,3-b]pyridine-5-carboxylic acid 2-propoxyethyl ester] |  |  |  |  | > 100
COc1ccc(C(=O)c2sc3nc(C)cc(C)c3c2N)c(OC)c1 [Compound 45, 3-Amino-4,6-dimethyl-2-(2,4-dimetoxybenzoyl)thieno[2,3-b]pyridine] |  | 959 |  |  | 
